We go through seven molecules from patent US9688699B2, “3-(pyrimidine-2-yl)imidazo[1,2-a]pyridines” (Bayer Pharma Aktiengesellschaft, priority 2014, dated 2017).

The target in this assay is T1, human phosphodiesterase 5 (PDE 5) (Homo sapiens, UniProt O76074).
T1 construct: PDE 5 preparations are obtained from human platelets by disruption; from tissue; host or cells: human platelets (Mono Q ion exchange fractions with PDE 5 activity)
As to the kind of experiment: Inhibition of human phosphodiesterase 5 (PDE 5) (B-3). The assay is classed as biochemical. The following applies: PDE 5 preparation from human platelets; [8-3H] cGMP substrate, SPA; in some cases means of individual determinations. As to the method: B-3. Inhibition of Human Phosphodiesterase 5 (PDE 5)
PDE 5 preparations are obtained from human platelets by disruption (Microfluidizer®, 800 bar, 3 passes), followed by centrifugation (75 000 g, 60 min, 4° C.) and ion exchange chromatography of the supernatant on a Mono Q 10/10 column (linear sodium chloride gradient, elution with a 0.2-0.3M solution of sodium chloride in buffer (20 mM Hepes pH 7.2, 2 mM magnesium chloride). Fractions having PDE 5 activity are combined (PDE 5 preparation) and stored at −80° C.
To determine their in vitro action on human PDE 5, the test substances are dissolved in 100% DMSO and serially diluted. Typically, dilution series (1:3) from 200 μM to 0.091 μM are prepared (resulting final concentrations in the test: 4 μM to 0.0018 μM). In each case 2 μl of the diluted substance solutions are placed into the wells of microtitre plates (Isoplate-96/200 W; Perkin Elmer). Subsequently, 50 μl of a dilution of the above-described PDE 5 preparation are added. The dilution of the PDE 5 preparation is chosen such that during the later incubation less than 70% of the substrate are converted (typical dilution: 1:100; dilution buffer: 50 mM tris/hydrochloric acid pH 7.5, 8.3 mM magnesium chloride, 1.7 mM EDTA, 0.2% BSA). The substrate, [8-^3H] cyclic guanosine-3′,5′-monophosphate (1 μCi/μl; Perkin Elmer), is diluted 1:2000 with assay buffer (50 mM tris/hydrochloric acid pH 7.5, 8.3 mM magnesium chloride, 1.7 mM EDTA) to a concentration of 0.0005 μCi/μl. By addition of 50 μl (0.025 μCi) of the diluted substrate, the enzyme reaction is finally started. The test mixtures are incubated at room temperature for 60 min and the reaction is stopped by adding 25 μl of a suspension of 18 mg/ml yttrium scintillation proximity beads in water (phosphodiesterase beads for SPA assays, RPNQ 0150, Perkin Elmer). The microtitre plates are sealed with a film and left to stand at room temperature for 60 min. Subsequently, the plates are analysed for 30 s per well in a Microbeta scintillation counter (Perkin Elmer). IC50 values are determined using the graphic plot of the substance concentration against percentage PDE 5 inhibition.

Where a name gives a salt, the structure may show the parent alone.

Molecule `Cc1nc2c(OCc3c(F)ccc(F)c3F)cccn2c1-c1nc(C#CC2CC2)c2c(n1)NC(=O)C2(C)C` [Example 70, 4-(Cyclopropylethynyl)-5,5-dimethyl-2-{2-methyl-8-[(2,3,6-trifluorobenzyl)oxy]imidazo[1,2-a]pyridin-3-yl}-5,7-dihydro-6H-pyrrolo[2,3-d]pyrimidin-6-one] registered an IC50 of 0.43 µM.
To `Cc1nc2c(OCc3c(F)ccc(F)c3F)cccn2c1-c1nc(CCC2CC2)c2c(n1)NC(=O)C2(C)C` [Example 71, 4-(2-Cyclopropylethyl)-5,5-dimethyl-2-{2-methyl-8-[(2,3,6-trifluorobenzyl)oxy]imidazo[1,2-a]pyridin-3-yl}-5,7-dihydro-6H-pyrrolo[2,3-d]pyrimidin-6-one] belongs 0.2 µM; to `Cc1ncc(-c2nc(-c3c(C)nc4c(OCc5c(F)ccc(F)c5F)cccn34)nc3c2C(C)(C)C(=O)N3)s1` [Example 73, 5,5-Dimethyl-4-(2-methyl-1,3-thiazol-5-yl)-2-{2-methyl-8-[(2,3,6-trifluorobenzyl)oxy]imidazo[1,2-a]pyridin-3-yl}-5,7-dihydro-6H-pyrrolo[2,3-d]pyrimidin-6-one], 0.022 µM; to `Cc1nc2c(OCc3c(F)ccc(F)c3F)cccn2c1-c1nc2c(c(C(=O)NCC(C)(N)C(F)(F)F)n1)C(C)(C)C(=O)N2` (racemic) [Example 57, rac-N-(2-amino-3,3,3-trifluoro-2-methylpropyl)-5,5-dimethyl-2-{2-methyl-8-[(2,3,6-trifluorobenzyl)oxy]imidazo[1,2-a]pyridin-3-yl}-6-oxo-6,7-dihydro-5H-pyrro1o[2,3-d]pyrimidine-4-carboxamide], 0.003 µM.
On to `Cc1nc2c(OCc3c(F)ccc(F)c3F)cccn2c1-c1nc(NCC(C)(C)N)c2c(n1)NC(=O)C2(C)C` [Example 31, 4-[(2-Amino-2-methylpropyl)amino]-5,5-dimethyl-2-{2-methyl-8-[(2,3,6-trifluorobenzyl)oxy]imidazo[1,2-a]pyridin-3-yl}-5,7-dihydro-6H-pyrrolo[2,3-d]pyrimidin-6-one formate], for which the half-maximal inhibitory concentration (IC50) was found to be 0.0012 µM.
To `Cc1nc2c(OCc3c(F)ccc(F)c3F)cccn2c1-c1nc2c(c(OCCC(F)(F)F)n1)C(C)(C)C(=O)N2` [Example 77, 5,5-Dimethyl-2-{2-methyl-8-[(2,3,6-trifluorobenzyl)oxy]imidazo[1,2-a]pyridin-3-yl}-4-(3,3,3-trifluoropropoxy)-5,7-dihydro-6H-pyrrolo[2,3-d]pyrimidin-6-one] belongs 0.14 µM; to `Cc1nc2c(OCc3c(F)ccc(F)c3F)cccn2c1-c1nc2c(c(OCC3CC3)n1)C(C)(C)C(=O)N2` [Example 76, 4-(Cyclopropylmethoxy)-5,5-dimethyl-2-{2-methyl-8-[(2,3,6-trifluorobenzyl)oxy]imidazo[1,2-a]pyridin-3-yl}-5,7-dihydro-6H-pyrrolo[2,3-d]pyrimidin-6-one], 0.046 µM.
